Results reported in patent US20250215029A1 (Recludix Pharma, Inc., priority 2022, published 2025).
Read-outs that look alike come from different tables or passages of the source.

How the values were obtained:
[1] = biological target: T1, pY641-STAT6 in PBMC (Homo sapiens, UniProt P42226); assay: MSD-pSTAT-PBMC Assay (pSTAT6, IL-4 stimulated); type: cell-based; conditions: compound 3 hrs, then 1 ng/mL IL-4 for 10 min
T1 construct: Cryopreserved Peripheral Blood Mononuclear Cells (PBMC) are from AllCells; host or cells: cryopreserved PBMC
T1 sequence (P42226 1-847): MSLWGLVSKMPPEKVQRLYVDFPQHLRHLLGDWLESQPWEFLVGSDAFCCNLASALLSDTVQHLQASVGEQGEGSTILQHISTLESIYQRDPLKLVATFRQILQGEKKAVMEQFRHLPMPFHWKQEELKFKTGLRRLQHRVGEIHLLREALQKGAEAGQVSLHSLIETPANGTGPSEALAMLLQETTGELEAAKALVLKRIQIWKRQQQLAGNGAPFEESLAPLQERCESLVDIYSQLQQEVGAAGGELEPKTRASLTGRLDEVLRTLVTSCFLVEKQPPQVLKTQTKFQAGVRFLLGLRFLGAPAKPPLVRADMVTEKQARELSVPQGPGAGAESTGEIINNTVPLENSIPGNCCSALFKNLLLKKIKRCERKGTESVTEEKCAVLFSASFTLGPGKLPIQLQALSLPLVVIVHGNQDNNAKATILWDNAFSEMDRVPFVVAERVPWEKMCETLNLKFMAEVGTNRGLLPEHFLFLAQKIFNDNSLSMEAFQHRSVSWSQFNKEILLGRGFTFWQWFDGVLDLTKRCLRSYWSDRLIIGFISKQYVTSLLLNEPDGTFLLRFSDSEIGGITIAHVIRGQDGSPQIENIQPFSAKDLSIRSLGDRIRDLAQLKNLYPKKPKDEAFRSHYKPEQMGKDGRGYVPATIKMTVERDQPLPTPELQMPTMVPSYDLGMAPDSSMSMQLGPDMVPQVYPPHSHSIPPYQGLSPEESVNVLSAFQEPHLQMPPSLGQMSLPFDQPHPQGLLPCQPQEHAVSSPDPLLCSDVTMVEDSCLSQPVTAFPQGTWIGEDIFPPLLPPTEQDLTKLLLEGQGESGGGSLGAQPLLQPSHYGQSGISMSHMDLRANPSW
Procedure, shortened: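 Inhibition of cytokine-induced STAT phosphorylation was measured in recovered human PBMC after 3 hrs compound exposure and a 10 min IL-4 (1 ng/mL) or IL-6 (10 ng/mL) challenge. MSD detection of pY641-STAT6 or pY705-STAT3 yielded IC50 values.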

[2] = biological target: T2, pY705-STAT3 in PBMC (Homo sapiens, UniProt P40763); assay: MSD-pSTAT-PBMC Assay (pSTAT3, IL-6 stimulated); type: cell-based; conditions: compound 3 hrs, then 10 ng/mL IL-6 for 10 min
T2 construct: Cryopreserved Peripheral Blood Mononuclear Cells (PBMC) are from AllCells; host or cells: cryopreserved PBMC
Procedure, shortened: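 Cells are preincubated with compound for 3 hrs, then stimulated for 10 min, IL-4 at 1 ng/mL driving STAT6 phosphorylation and IL-6 at 10 ng/mL driving STAT3. Phospho-STAT in lysates is quantified by MSD immunoassay, and IC50 is fitted after subtracting unstimulated wells.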

[3] = PBMC, Table 1114, read-out: pSTAT6
[4] = PBMC, Table 1114, read-out: pSTAT3
[5] = PBMC, Table 115, read-out: STAT3

T2 sequence (P40763 whole entry): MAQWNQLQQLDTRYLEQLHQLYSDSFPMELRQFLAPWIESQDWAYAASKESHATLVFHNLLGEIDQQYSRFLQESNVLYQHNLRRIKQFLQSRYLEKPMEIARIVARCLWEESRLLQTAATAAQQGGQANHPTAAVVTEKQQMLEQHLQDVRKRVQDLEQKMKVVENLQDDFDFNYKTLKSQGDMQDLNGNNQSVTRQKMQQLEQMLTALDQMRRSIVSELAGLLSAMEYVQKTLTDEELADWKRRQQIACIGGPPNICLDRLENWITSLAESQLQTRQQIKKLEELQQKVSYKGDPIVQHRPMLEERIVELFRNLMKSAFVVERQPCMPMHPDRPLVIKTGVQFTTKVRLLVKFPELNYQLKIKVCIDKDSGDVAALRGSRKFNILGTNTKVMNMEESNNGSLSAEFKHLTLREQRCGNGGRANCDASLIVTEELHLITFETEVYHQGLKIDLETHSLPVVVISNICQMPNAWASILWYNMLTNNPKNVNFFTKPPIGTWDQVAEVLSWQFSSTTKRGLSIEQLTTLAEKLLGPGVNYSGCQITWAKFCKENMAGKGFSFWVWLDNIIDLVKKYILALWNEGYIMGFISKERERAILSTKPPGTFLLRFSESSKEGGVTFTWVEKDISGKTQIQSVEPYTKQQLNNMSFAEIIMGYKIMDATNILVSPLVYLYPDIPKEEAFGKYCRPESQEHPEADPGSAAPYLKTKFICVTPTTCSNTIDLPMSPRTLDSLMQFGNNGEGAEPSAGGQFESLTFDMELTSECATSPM

IC50 [1, 3] [nM]	IC50 [2, 4] [nM]	Compound	IC50 ([1]; STAT6, PBMC, Table 115) [nM]	IC50 [2, 5] [nM]	also measured
		CCCC(=O)SCCOP(=O)(Oc1cccc2ccccc12)C(F)(F)c1ccc2sc(C(=O)N[C@H]3CCC[C@H]4CC[C@@H](C(=O)N5CC(c6cccnc6)C5)N4C3=O)cc2c1 (stereo partly drawn) [Compound 140, S-(2-(((difluoro(2-(((3S,6S,9aS)-5-oxo-3-(3-(pyridin-3-yl)azetidine-1-carbonyl)octahydro-1H-pyrrolo[1,2-a]azepin-6-yl)carbamoyl)benzo[b]thiophen-5-yl)methyl) (naphthalen-1-yloxy)phosphoryl)oxy)ethyl) butanethioate]			IC50 ([1]; pSTAT6, PBMC, Table 1114): 1000 to 3000 nM; IC50 ([2]; pSTAT3, PBMC, Table 1114): < 100 nM
< 100	< 100	CN(C)S(=O)(=O)N1CCN(C(=O)[C@@H]2CC[C@@H]3CCCC[C@H](NC(=O)c4cc5cc(C(F)(F)P(=O)(OCOC(=O)C(C)(C)C)OCOC(=O)C(C)(C)C)ccc5s4)C(=O)N32)CC1 [Compound 145, ((((2-(((3S,6S,10aS)-3-(4-(N,N-dimethylsulfamoyl)piperazine-1-carbonyl)-5-oxodecahydro-pyrrolo[1,2-a]azocin-6-yl)carbamoyl)benzo[b]thiophen-5-yl)difluoromethyl)phosphoryl)bis (oxy))bis (methylene) bis(2,2-dimethylpropanoate)]			
< 100	< 100	CC(C)(C)C(=O)OCOP(=O)(OCOC(=O)C(C)(C)C)C(F)(F)c1ccc2sc(C(=O)N[C@H]3CCCC[C@H]4CC[C@@H](C(=O)N5C[C@H](c6ccccc6)[C@@H](C#N)C5)N4C3=O)cc2c1 (relative stereo) [Compound 190, ((((2-(((3S,6S,10aS)-3-(rel- trans)-3-cyano-4-phenyl-pyrrolidine-1-carbonyl)-5-oxodecahydro-pyrrolo[1,2-a]azocin-6-yl)carbamoyl)benzo[b]thiophen-5-yl)difluoro-methyl)phos-phoryl)bis(oxy)) bis(methylene) bis(2,2-dimethyl-propanoate)]			
		CCCOC(=O)[C@H](C)NP(=O)(Oc1ccccc1)C(F)c1ccc2sc(C(=O)N[C@H]3CCCC[C@H]4CC[C@@H](C(=O)N5C[C@@H](c6cccnc6)CC56CC6)N4C3=O)cc2c1 (stereo in doubt) [Compound 457, propyl (((R)-fluoro(2-(((3S,6S,10aS)-5-oxo-3-((R)-6-(pyridin-3-yl)-4-azaspiro[2.4]heptane-4-carbonyl)decahydropyrrolo[1,2-a]azocin-6-yl)carbamoyl)benzo [b]thiophen-5-yl)methyl)(phenoxy)phosphoryl)-L-alaninate]	< 100	> 3000	
< 100	100 to 1000	CC(C)CC(=O)SCCOP(=O)(OCCSC(=O)CC(C)C)C(F)(F)c1ccc2ccc(C(=O)N[C@H]3CCCC[C@H]4CC[C@@H](C(=O)N5C[C@H](c6cc[nH]c(=O)c6)[C@@H](C#N)C5)N4C3=O)cc2c1 (single isomer, unassigned) [Compound 155, S,S′-(((((7-(((3S,6S,10aS)-3-((3R,4S or 3S,4R)-3-cyano-4-(2-oxo-1,2-dihydropyridin-4-yl)pyrrolidine-1-carbonyl)-5-oxodecahydro-pyrrolo[1,2-a]azocin-6-yl)carbamoyl)naphthalen-2-yl)difluoromethyl)phosphoryl)bis(oxy))bis(ethane-2,1-diyl)) bis(3-methylbutane thioate)]			
		CCCOC(=O)[C@H](C)NP(=O)(Oc1ccccc1)[C@@H](F)c1ccc2sc(C(=O)N[C@H]3CCCC[C@H]4CC[C@@H](C(=O)N5C[C@H](c6ccccc6)[C@@H](C#N)C56CC6)N4C3=O)cc2c1 (stereo partly drawn) [Compound 381, propyl (((R)-(2-(((3S,6S,10aS)-3-((6S,7R)-7-cyano-6-phenyl-4-azaspiro[2.4]heptane-4-carbonyl)-5-oxodecahydropyrrolo [1,2-a]azocin-6-yl)carbamoyl)benzo [b]thiophen-5-yl)fluoromethyl) (phenoxy)phosphoryl)-L-alaninate]	< 100	> 3000	
